From patent publication US8334316B2, “Substituted organosulfur compounds and methods of using thereof” (ACEA Biosciences, Inc., priority 2004, dated 2012)

Test: Acute toxicity, single intravenous injection, LD50 (Bliss method) in Kunming mice
Format: in vivo
Protocol: To evaluate the in vivo acute, intravenous toxicity of DBTS and ACEA100108 (a derivative of DBTS, see Table 33), the experiments were performed in non-tumor bearing, normal Kunming mice by monitoring the acute response of mice to a single dose of DBTS or ACEA100108 via intravenous injection (i.v.). The number of death for the treated mice was monitored and recorded. LD50 values for these compounds were calculated. Details of the study are provided below.
The experiments to test DBTS and ACEA100108 acute toxicity were performed in mice. The test mice were randomly divided into six groups (five dosing groups and one control group). Each group contained 20 Kunming strain mice, and among them, 50% were male and 50% were female. After administration of a single dose of DBTS or ACEA100108 via intravenous injection (i.v.), the acute response to DBTS or ACEA100108 compound, and the death of the treated mice during the first two weeks were monitored and recorded. The LD50 value was calculated using the Bliss method.
Materials and Method. The test chemical compound were DBTS and ACEA100108, which were dissolved into hydrogenated castor oil in the pre-warmed water bath and made as a 20 mg/ml solution. The solution was further diluted to desired experiment concentrations with the normal saline. The administration volume was 0.5 ml i.v. per mouse and the injection speed was 0.5 ml/0.5 min.
The experimental mice were Kunming strain, provided by the Experimental Animal Department, Shanghai Pharmaceutical Industry Institute. The certificate number of the facility was Animal Facility Certification Number 107. The average weight of the mice was 18-20 gram. Each test group contained 20 Kunming strain mice, and among them, 10 mice were male and 10 mice were female. […] The mice in the control group were only given the same volume of the solvent, which were diluted hydrogenated castor oil. All the testing mice were given a single intravenous injection of DBTS, ACEA100108, or the solvent that served as the control at the injection speed of 0.5 ml/0.5 min. The acute response to DBTS, ACEA100108 or the solvent immediately after the administration, as well as weight change, and the death within the first two weeks of the administration were monitored and recorded. The intravenous injection LD50 values in mice were calculated using the Bliss method.

[1] = 50% male, 50% female, 163.8 mg/kg, 20 animals
[2] = 50% male, 50% female, 204.8 mg/kg, 20 animals
[3] = 50% male, 50% female, 256 mg/kg, 20 animals
[4] = 50% male, 50% female, 320 mg/kg, 20 animals
[5] = 50% male, 50% female, 400 mg/kg, 20 animals
[6] = 50% male, 50% female, 500 mg/kg, 20 animals
[7] = Female, 163.8 mg/kg, 10 animals
[8] = Female, 204.8 mg/kg, 10 animals

Fc1ccc(CSSSCc2ccc(F)cc2)cc1 [ACEA100108, Di(p-fluorobenzyl)trisulfide]
Dead animals on day 1 after the single intravenous injection [1]: 0
Dead animals on day 2 after the single intravenous injection [1]: 0
Dead animals on day 3 after the single intravenous injection [1]: 0
Dead animals on day 4 after the single intravenous injection [1]: 0
Dead animals on day 5 after the single intravenous injection [1]: 0
Dead animals on day 6 after the single intravenous injection [1]: 0
Dead animals on day 7 after the single intravenous injection [1]: 0
Dead animals on day 8 after the single intravenous injection [1]: 0
Dead animals on day 9 after the single intravenous injection [1]: 0
Dead animals on days 10-14 after the single intravenous injection [1]: 0 - - - 0
Percentage of dead animals [1]: 0%
Dead animals on day 1 after the single intravenous injection [2]: 0
Dead animals on day 2 after the single intravenous injection [2]: 0
Dead animals on day 3 after the single intravenous injection [2]: 1
Dead animals on day 4 after the single intravenous injection [2]: 0
Dead animals on day 5 after the single intravenous injection [2]: 0
Dead animals on day 6 after the single intravenous injection [2]: 0
Dead animals on day 7 after the single intravenous injection [2]: 0
Dead animals on day 8 after the single intravenous injection [2]: 0
Dead animals on day 9 after the single intravenous injection [2]: 0
Dead animals on days 10-14 after the single intravenous injection [2]: 0 - - - 0
Percentage of dead animals [2]: 5%
Dead animals on day 1 after the single intravenous injection [3]: 0
Dead animals on day 2 after the single intravenous injection [3]: 4
Dead animals on day 3 after the single intravenous injection [3]: 0
Dead animals on day 4 after the single intravenous injection [3]: 2
Dead animals on day 5 after the single intravenous injection [3]: 0
Dead animals on day 6 after the single intravenous injection [3]: 0
Dead animals on day 7 after the single intravenous injection [3]: 0
Dead animals on day 8 after the single intravenous injection [3]: 0
Dead animals on day 9 after the single intravenous injection [3]: 0
Dead animals on days 10-14 after the single intravenous injection [3]: 0 - - - 0
Percentage of dead animals [3]: 30%
Dead animals on day 2 after the single intravenous injection [4]: 2
Dead animals on day 3 after the single intravenous injection [4]: 5
Dead animals on day 4 after the single intravenous injection [4]: 2
Dead animals on day 5 after the single intravenous injection [4]: 0
Dead animals on day 6 after the single intravenous injection [4]: 0
Dead animals on day 7 after the single intravenous injection [4]: 0
Dead animals on day 8 after the single intravenous injection [4]: 0
Dead animals on day 9 after the single intravenous injection [4]: 0
Dead animals on days 10-14 after the single intravenous injection [4]: 0 - - - 0
Percentage of dead animals [4]: 45%
Dead animals on day 2 after the single intravenous injection [5]: 8
Dead animals on day 3 after the single intravenous injection [5]: 5
Dead animals on day 4 after the single intravenous injection [5]: 0
Dead animals on day 5 after the single intravenous injection [5]: 2
Dead animals on day 6 after the single intravenous injection [5]: 0
Dead animals on day 7 after the single intravenous injection [5]: 0
Dead animals on day 8 after the single intravenous injection [5]: 0
Dead animals on day 9 after the single intravenous injection [5]: 0
Dead animals on days 10-14 after the single intravenous injection [5]: 0 - - - 0
Percentage of dead animals [5]: 75%
Dead animals on day 1 after the single intravenous injection [6]: 20
Dead animals on day 2 after the single intravenous injection [6]: 0
Dead animals on day 3 after the single intravenous injection [6]: 0
Dead animals on day 4 after the single intravenous injection [6]: 0
Dead animals on day 5 after the single intravenous injection [6]: 0
Dead animals on day 6 after the single intravenous injection [6]: 0
Dead animals on day 7 after the single intravenous injection [6]: 0
Dead animals on day 8 after the single intravenous injection [6]: 0
Dead animals on day 9 after the single intravenous injection [6]: 0
Dead animals on days 10-14 after the single intravenous injection [6]: 0 - - - 0
Percentage of dead animals [6]: 100%
Dead animals on day 1 after the single intravenous injection [7]: 0
Dead animals on day 2 after the single intravenous injection [7]: 0
Dead animals on day 3 after the single intravenous injection [7]: 0
Dead animals on day 4 after the single intravenous injection [7]: 0
Dead animals on day 5 after the single intravenous injection [7]: 0
Dead animals on day 6 after the single intravenous injection [7]: 0
Dead animals on day 7 after the single intravenous injection [7]: 0
Dead animals on day 8 after the single intravenous injection [7]: 0
Dead animals on day 9 after the single intravenous injection [7]: 0
Dead animals on days 10-14 after the single intravenous injection [7]: 0 - - - 0
Percentage of dead animals [7]: 0%
Average animal weight, End (Female, 163.8 mg/kg, Beginning 19.6): 24.2
Dead animals on day 1 after the single intravenous injection [8]: 0
Dead animals on day 2 after the single intravenous injection [8]: 0
Dead animals on day 3 after the single intravenous injection [8]: 0
Dead animals on day 4 after the single intravenous injection [8]: 0
Dead animals on day 5 after the single intravenous injection [8]: 0
Dead animals on day 6 after the single intravenous injection [8]: 0
Dead animals on day 7 after the single intravenous injection [8]: 0
Dead animals on day 8 after the single intravenous injection [8]: 0
Dead animals on day 9 after the single intravenous injection [8]: 0
Dead animals on days 10-14 after the single intravenous injection [8]: 0 - - - 0
Percentage of dead animals [8]: 0%
Average animal weight, End (Female, 204.8 mg/kg, Beginning 20.5): 24.3
Dead animals on day 1 after the single intravenous injection (Female, 256 mg/kg, 10 animals): 0
Dead animals on day 2 after the single intravenous injection (Female, 256 mg/kg, 10 animals): 2
Dead animals on day 3 after the single intravenous injection (Female, 256 mg/kg, 10 animals): 0
Dead animals on day 4 after the single intravenous injection (Female, 256 mg/kg, 10 animals): 1
Dead animals on day 5 after the single intravenous injection (Female, 256 mg/kg, 10 animals): 0
Dead animals on day 6 after the single intravenous injection (Female, 256 mg/kg, 10 animals): 0
Dead animals on day 7 after the single intravenous injection (Female, 256 mg/kg, 10 animals): 0
Dead animals on day 8 after the single intravenous injection (Female, 256 mg/kg, 10 animals): 0
Dead animals on day 9 after the single intravenous injection (Female, 256 mg/kg, 10 animals): 0
Dead animals on days 10-14 after the single intravenous injection (Female, 256 mg/kg, 10 animals): 0 - - - 0
Percentage of dead animals (Female, 256 mg/kg, 10 animals): 30%
Average animal weight, End (Female, 256 mg/kg, Beginning 20.1): 24.6
Dead animals on day 1 after the single intravenous injection (Female, 320 mg/kg, 10 animals): 2
Dead animals on day 2 after the single intravenous injection (Female, 320 mg/kg, 10 animals): 2
Dead animals on day 3 after the single intravenous injection (Female, 320 mg/kg, 10 animals): 1
Dead animals on day 4 after the single intravenous injection (Female, 320 mg/kg, 10 animals): 0
Dead animals on day 5 after the single intravenous injection (Female, 320 mg/kg, 10 animals): 0
Dead animals on day 6 after the single intravenous injection (Female, 320 mg/kg, 10 animals): 0
Dead animals on day 7 after the single intravenous injection (Female, 320 mg/kg, 10 animals): 0
